Test [1] deals with vraSR promoter (Pvra-lux reporter in strain 923). The test can be described thus: Primary screen, relative luminescence (vraSR expression).
Test [2] has as its system test strain 923 pPvra-lux (USA300 MRSA). The test can be described thus: Primary screen, relative growth in presence of oxacillin. The conditions noted are these: compound 10 μM with oxacillin 2 μg/mL, absorbance 24 h, <0.50 = dead cells = hit.
Setting [3] is: primary screen, compound 10 μM with oxacillin 2 μg/mL, <0.50 = vraSR repressed = hit.

This note sets out measurements from patent US9675592B2, “Methods and compositions for bacteria infections” (priority 2013, dated 2017).

Like-named read-outs stand apart in the source and are kept apart here.

With `CCCCN(C)S(=O)(=O)c1ccc(C(=O)Nc2nnc(-c3ccc(Br)s3)o2)cc1` [F5093-101], in test [1] (setting [3]), the “RL avg (relative luminescence)” value is −0.04. Moreover, the “RG avg (relative growth)” value in test [2] is listed as −0.02.
The matching figures for `O=C(Nc1nnc(-c2cc(Cl)ccc2Cl)o1)c1cc(Cl)ccc1Cl` [F2518-49]: −0.05 and −0.03.
As to `CCN(Cc1ccccc1)S(=O)(=O)c1ccc(C(=O)Nc2nnc(-c3ccc(OC)cc3)o2)cc1` [F0559-206], the “RL avg (relative luminescence)” value in test [1] (setting [3]) is listed as −0.11. Besides, in test [2], the “RG avg (relative growth)” value is 0.19.
The matching figures for `O=C(Nc1nnc(-c2ccc(Cl)cc2)o1)c1ccc2ncsc2c1` [F1374-836]: 0.31 and −0.01.
The matching figures for `COc1cc(-c2nnc(NC(=O)c3cccc(Br)c3)o2)cc(OC)c1OC` [F2517-14]: −0.07 and −0.03.
In the same order, the values of `Cc1ccc(-c2nnc(NC(=O)c3ccc(S(=O)(=O)N4CCCCC4C)cc3)o2)c(C)c1` (stereo not drawn) [F2518-228] are −0.14 and 0.00.
Regarding `CSc1ccc(-c2nnc(NC(=O)c3ccc4c(c3)CCCC4)o2)cc1` [F2645-379], the “RL avg (relative luminescence)” value in test [1] (setting [3]) amounted to 0.37. The “RG avg (relative growth)” value in test [2] is given as 0.04.
With `O=C(Nc1nnc(-c2ccc(Cl)s2)o1)c1ccc2ncsc2c1` [F1374-1151], the “RL avg (relative luminescence)” value in test [1] (setting [3]) is 0.35. Further, the “RG avg (relative growth)” value in test [2] was −0.02.
The matching figures for `O=C(Nc1nnc(-c2cccs2)o1)c1sc2ccccc2c1Cl` [F1374-988]: 0.37 and 0.03.
In the same order, the values of `COc1ccc(-c2nnc(NC(=O)c3cc(Cl)sc3Cl)o2)c(OC)c1` [F1374-583] are 0.36 and 0.00.
In the case of `O=C(Nc1nnc(-c2ccc(Cl)s2)o1)c1ccc(Cl)cc1` [F1374-1055], in test [1] (setting [3]), the “RL avg (relative luminescence)” value is 0.50. The “RG avg (relative growth)” value in test [2] amounted to 0.02.
In the same order, the values of `O=C(Nc1nnc(C2=COCCO2)o1)c1cc(Cl)cc(Cl)c1` [F0608-258] are −0.06 and −0.05.
`Cc1ccc(C)c(-c2nnc(NC(=O)c3ccc4c(c3)CCCC4)o2)c1` [F2518-373]: in test [1] (setting [3]), the “RL avg (relative luminescence)” value was −0.05. Further, the “RG avg (relative growth)” value in test [2] came out at 0.05.
In the case of `O=C(Nc1nnc(-c2ccc(Br)cc2)o1)c1ccc(Oc2ccccc2)cc1` [F2518-534], in test [1] (setting [3]), the “RL avg (relative luminescence)” value was found to be 0.04. For the same compound, the “RG avg (relative growth)” value in test [2] stood at 0.01.
The matching figures for `C=CCN(CC=C)S(=O)(=O)c1ccc(C(=O)Nc2nnc(-c3ccccc3OC)o2)cc1` [F0559-129]: −0.07 and −0.08.
The matching figures for `COC(=O)c1ccc(C(=O)Nc2nnc(-c3ccccc3Cl)o2)cc1` [F1374-55]: 0.47 and 0.28.
The matching figures for `O=C(Nc1nnc(-c2ccc(Br)cc2)o1)c1cc(Cl)sc1Cl` [F2518-504]: 0.00 and 0.01.
Turning to `COc1ccc(-c2nnc(NC(=O)c3ccc(S(=O)(=O)N(C)Cc4ccccc4)cc3)o2)c(OC)c1` [F0559-398], the “RL avg (relative luminescence)” value in test [1] (setting [3]) is on record as −0.11. Also, the “RG avg (relative growth)” value in test [2] is −0.07.
The matching figures for `O=C(COc1ccc(Cl)cc1)Nc1nnc(-c2ccc(Br)cc2)o1` [F2518-483]: −0.04 and −0.02.
The matching figures for `O=C(Nc1nnc(-c2cc(Cl)sc2Cl)o1)c1cccs1` [F1374-2664]: 0.32 and 0.00.
In the same order, the values of `COC(=O)c1ccc(C(=O)Nc2nnc(-c3cc(C)ccc3C)o2)cc1` [F2518-355] are −0.04 and −0.01.
With `Cc1ccc(C)c(-c2nnc(NC(=O)c3cc(Cl)sc3Cl)o2)c1` [F2518-360], the “RL avg (relative luminescence)” value in test [1] (setting [3]) is recorded as 0.13. Besides, in test [2], the “RG avg (relative growth)” value is reported as 0.04.
In the same order, the values of `O=C(Nc1nnc(-c2ccc3c(c2)OCCO3)o1)c1cccc(Cl)c1` [F0608-123] are −0.04 and −0.02.
In the same order, the values of `COc1cccc2cc(-c3nnc(NC(=O)c4cccc(F)c4)o3)oc12` [F2273-13] are −0.06 and −0.03.
Take `CC1CN(S(=O)(=O)c2ccc(C(=O)Nc3nnc(-c4ccc(F)cc4)o3)cc2)CC(C)O1` (stereo not drawn) [F0559-107]: the “RL avg (relative luminescence)” value in test [1] (setting [3]) is −0.06. Further, the “RG avg (relative growth)” value in test [2] is −0.05.
In the case of `Cc1ccc(-c2nnc(NC(=O)c3ccc(Cl)cc3Cl)o2)c(C)c1` [F2518-166], in test [1] (setting [3]), the “RL avg (relative luminescence)” value is reported as −0.10. Besides, the “RG avg (relative growth)” value in test [2] is −0.02.
On to `CCOc1ccc(C(=O)Nc2nnc(-c3ccc(Cl)s3)o2)cc1` [F1374-1129], for which the “RL avg (relative luminescence)” value in test [1] was 0.47. For the same compound, the “RG avg (relative growth)” value in test [2] was 0.00.
Regarding `O=C(Nc1nnc(-c2cc(Cl)ccc2Cl)o1)c1ccccc1` [F2518-2], the “RL avg (relative luminescence)” value in test [1] (setting [3]) was determined as 0.01. In test [2], the “RG avg (relative growth)” value is −0.02.
Regarding `O=C(Nc1nnc(-c2ccccn2)o1)c1cc(Cl)cc(Cl)c1` [F0608-928], the “RL avg (relative luminescence)” value in test [1] (setting [3]) stood at 0.07. Also, in test [2], the “RG avg (relative growth)” value is on record as −0.01.
Take `COc1cccc2cc(-c3nnc(NC(=O)c4ccc(S(=O)(=O)N(C)C)cc4)o3)oc12` [F2273-29]: in test [1] (setting [3]), the “RL avg (relative luminescence)” value was 0.29. Moreover, the “RG avg (relative growth)” value in test [2] is 0.16.
The matching figures for `Cc1ccc(C)c(-c2nnc(NC(=O)c3cccc(Cl)c3)o2)c1` [F2518-295]: −0.09 and 0.01.
The matching figures for `O=C(Nc1nnc(-c2ccc(Br)cc2)o1)c1cccc(C(F)(F)F)c1` [F2518-477]: 0.03 and 0.01.
The matching figures for `C=CCN(CC=C)S(=O)(=O)c1ccc(C(=O)Nc2nnc(-c3cc(OC)c(OC)c(OC)c3)o2)cc1` [F0559-279]: −0.09 and 0.40.
With `O=C(COc1ccc(Cl)cc1)Nc1nnc(-c2ccc3c(c2)CCCC3)o1` [F0608-664], the “RL avg (relative luminescence)” value in test [1] (setting [3]) was −0.01. Also, the “RG avg (relative growth)” value in test [2] is given as −0.04.
The matching figures for `O=C(Nc1nnc(-c2cc3ccccc3o2)o1)c1ccc2ncsc2c1` [F2273-492]: 0.24 and 0.25.
The matching figures for `Cc1ccc(-c2nnc(NC(=O)c3ccc(Cl)s3)o2)c(C)c1` [F2518-186]: −0.09 and 0.01.
The matching figures for `COc1ccccc1-c1nnc(NC(=O)c2ccc(S(=O)(=O)N(C)c3ccccc3)cc2)o1` [F0559-127]: −0.11 and −0.05.
Consider `CCN(CC)S(=O)(=O)c1ccc(C(=O)Nc2nnc(-c3cc(C)ccc3C)o2)cc1` [F2518-298], for which the “RL avg (relative luminescence)” value in test [1] (setting [3]) stood at 0.06. The “RG avg (relative growth)” value in test [2] is −0.02.
In the same order, the values of `O=C(Nc1nnc(-c2ccc(Cl)cc2)o1)c1cccs1` [F1374-757] are 0.29 and 0.02.
